Experimental data from article PMC6502800, “Visualizing the cellular route of entry of a cystine-knot peptide with Xfect transfection reagent by electron microscopy” (Scientific Reports, 2019).

Legend:
HeLa cells [1] = assay: Uptake of cargo into cells pre-treated with Xfect
Procedure: Cells were fixed with 4% PFA and processed as described in methods. […] Values were normalized to the 6 h Xfect treated samples. Mean ± SD. n = 1000 cells. Representative images from three independent experiments are shown. Scale bar, 20 µm.
(a–d) HeLa cells were incubated with Xfect for indicated times then washed with PBS for three times and incubated with 30 nM SYTOX Red (a,b, Cy5 channel) or 200 nM YOYO-3 Iodide (c,d, Texas Red channel) for 20 min, and washed with PBS again. Cells were fixed with 4% PFA and processed as described in methods. […] Values were normalized to the 24 h Xfect treated samples. Mean ± SD. n = 1000 cells. Representative images from three independent experiments are shown. Scale bar, 20 µm.
cells.HeLa cells were incubated with Xfect for the indicated times, then washed with PBS
forthree times and incubated with 30 nM SYTOX Red (a, Cy5 channel) or 200 nM YOYO-3
Iodide (b, Texas Red channel) for 20 min, and washed with PBS again. Cells were fixed with
4% PFA and processed as described in methods. Representative images from three
independent experiments are shown. Scale bar, 20 µm. Images are normalized to saturation
atthe 24 h time point in order to show the cellular distribution of early time point samples.

HeLa cells [2] = assay: Detergent-based cell permeabilization assay
Procedure: Figure 4 Internalized rEETI-II/Xfect is found in compartments that are resistant to detergent permeabilization. […] Cells were then incubated with PBS, 0.1% Triton X-100, 0.04% Saponin, 0.01% Saponin, or 25 μM Digitonin in PBS for 5 min at room temperature, washed and imaged. […] Mean ± SD. n = 1000 cells. Representative images from at least three independent experiments are shown. Scale bar, 20 μm.
For cell permeabilization experiments, HeLa cells were incubated with 5 μM rEETI-II-A488 with or without Xfect for 60 min, or transferrin (labeled with Alexa 555, 0.2 mg/ml) for 10 min, at 37 °C/5% CO2, washed three times with cold PBS. Cells were then fixed with 4% PFA for 20 min at room temperature, washed three times with PBS, and incubated with either PBS, or detergent containing PBS for 5 min at room temperature. Cells were washed again. […] Fluorescence images were captured on a high throughput ImageXpress Micro XL imaging system (Molecular Devices) and images were analyzed by MetaXpress 4.0. Fluorescence intensity values above a threshold defined using the DMSO-treated samples were measured and used to quantify integrated fluorescence intensity per cell or percentage of dye-positive cells. […] Cells were incubated with Hoechst 333421 (5 µg/ml in PBS) for 10 min and washed three times with PBS then imaged, analyzed as described above. […]

Molecule | uptake of cell impermeable dye into cells pre-treated with Xfect (HeLa cells [1]; HeLa cells pre-treated with Xfect 3 h, washed, then dye 20 min (SYTOX Red 30 nM; YOYO-3 Iodide 200 nM), fluorescence imaging) | uptake of dye into cells in the absence of Xfect preincubation (HeLa cells [1]; HeLa cells, no Xfect, dye 20 min (SYTOX Red 30 nM; YOYO-3 Iodide 200 nM), negative control) | internalized transferrin staining after detergent permeabilization (HeLa cells [2])
C[n+]1c(C=CC=C2C=CN(CCC[N+](C)(C)CCC[N+](C)(C)CCCN3C=CC(=CC=Cc4oc5ccccc5[n+]4C)c4ccccc43)c3ccccc32)oc2ccccc21 [YOYO-3 Iodide] | observed to enter into cells | little to no uptake | –
transferrin-Alexa555: transferrin labeled with Alexa 555, marker of early and recycling endosomes | – | – | resistant to detergent extraction
